Patent USRE37781E1, “Substituted cyclic carbonyls and derivatives thereof useful as retroviral protease inhibitors” (DuPont Pharmaceuticals Company, priority 1991, dated 2002)
Converted amounts (≈) assume the structure as drawn. “And” between values parts separate entries of the source, which are not always exact repeats. Identical values can stand only once. Like-named read-outs stand apart in the source and are kept apart here.

How the values were obtained:
HIV protease = biological target: T1, HIV protease (Human immunodeficiency virus type 1 group M subtype B, UniProt P04585); test: biochemical; design: species or system HIV-1; conditions: Table 1a
T1 construct: plasmid containing HIV protease under the control of an inducible T7 promoter; made in house; host or cells: E. coli (inclusion bodies, T7 promoter)
Method: HIV Protease Inhibition Assay—Spectroscopic Method
Inclusion bodies were solubilized in 8M urea, 50 mM tris pH 8.0. Protease activity was recovered by dilution 20-fold into buffer containing 50 mM sodium acetate pH 5.5, 1 mM EDTA, 10% glycerol and 5% ethylene glycol. Enzyme was used at a final concentration of 1.0-10 ug/ml.
Stock solutions of 10 mM were prepared in DMSO.
All further dilutions were done in DMSO.

HIV-1 (RF) in MT-2 cells = test: microbe, parasite or virus in culture; assay type: cell-based
How it was run: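 Read-out: gag and pol viral RNA captured by 5′-biotinylated oligonucleotides on streptavidin-coated wells, detected with alkaline phosphatase-linked reporter oligonucleotides, calibrated against BH10 in vitro transcripts. Virus stocks (RF, MN, IIIB) come from H9 cultures; MT-2 host cells kept in RPMI 1640, 5% FCS.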

[1] = biological target: single-chain tethered dimer of HIV protease (Human immunodeficiency virus 1, UniProt P04585); test: biochemical; assay type: biochemical; design: fused on or other part: A second copy of the same protease unit is joined to the first by a short peptide tether, giving one polypeptide
[2] = Human immunodeficiency virus 1, MT2, 48 h, Table 2d, HIV RNA assay, read-out: IC90
[3] = read-out: HPLC K1, Table 2d, HIV protease inhibition, HPLC method
[4] = Human immunodeficiency virus 1, MT2, 48 h, Table 2d, class symbols, read-out: IC90
[5] = read-out: HPLC K1, Table 2d, class symbols
[6] = Human immunodeficiency virus 1, MT2, Table 2i, read-out: IC90

Row | SMILES | melting point | IC90 (HIV-1 (RF) in MT-2 cells; [4]) | Ki [1, 5] | further results
1 | CC(C)C(NCCN1C(=O)N(CCO)C(Cc2ccccc2)C(O)C(O)C1Cc1ccccc1)C(=O)OCc1ccccc1 (centres unmarked) [Example 1L] | – | – | – | Ki (HIV protease; read-out: Ki): > 1000 nM
2 | CC(C)C(NCCN1C(=O)N(CCNC(C(=O)OCc2ccccc2)C(C)C)C(Cc2ccccc2)C(O)C(O)C1Cc1ccccc1)C(=O)OCc1ccccc1 (centres unmarked) [Example 1U] | – | – | – | Ki (HIV protease; read-out: Ki): > 1000 nM
3 | CC(C)CN1C(=O)N(CC(C)C)C(Cc2ccccc2)C(O)C(O)C1Cc1ccccc1 (centres unmarked) [Example 1AO] | – | – | – | Ki (HIV protease; read-out: Ki): 10 to 1000 nM
4 | C=CCN1C(=O)N(CC=C)[C@H](Cc2ccccc2)[C@@H](O)[C@H](O)[C@H]1Cc1ccccc1 [Example 1G] | – | – | – | Ki (HIV protease; Ki): 10 to 1000 nM
5 | CC(C)=CCN1C(=O)N(C)C(Cc2ccccc2)C(O)C(O)C1Cc1ccccc1 (centres unmarked) [Example 1BD] | – | – | – | Ki (HIV protease; read-out: Ki): 10 to 1000 nM
6 | O=C1N(Cc2ccc3cn[nH]c3c2)C(Cc2ccccc2)C(O)C(O)C(Cc2ccccc2)N1Cc1ccc2cn[nH]c2c1 (centres unmarked) [15CY] | 170 to 175 °C | – | – | IC90 (HIV-1 (RF) in MT-2 cells; [2]): < 10 µg/mL; Ki [1, 3]: < 10 nM
7 | O=C1NC(Cc2ccccc2)C(O)C(O)C(Cc2ccccc2)N1Cc1ccc(CO)cc1 (centres unmarked) [Example 11N] | 112 to 114 °C | < 10 µg/mL | < 10 nM | –
8 | CONC(=O)c1cccc(CN2C(=O)N(Cc3cccc(C(=O)NOC)c3)C(Cc3ccccc3)C(O)C(O)C2Cc2ccccc2)c1 (centres unmarked) [10R] | 150 to 158 °C | < 10 µg/mL | < 10 nM | –
9 | CSc1cccc(CN2C(=O)N(Cc3cccc(SC)c3)C(Cc3ccccc3)C(O)C(O)C2Cc2ccccc2)c1 (centres unmarked) [Example 12R] | 169 °C and 169.3 °C | < 10 µg/mL | < 10 nM | –
10 | NC(=O)c1cccc(CN2C(=O)N(CC3CC3)C(Cc3ccccc3)C(O)C(O)C2Cc2ccccc2)c1 (centres unmarked) [15WV] | 128 to 130 °C | < 10 µg/mL | < 10 nM | –
11 | COC(=O)c1cccc(CN2C(=O)N(Cc3cccc(-c4cc[nH]n4)c3)C(Cc3ccccc3)C(O)C(O)C2Cc2ccccc2)c1 (centres unmarked) [Example 15BP] | 127 to 130 °C | – | – | IC90 (HIV-1 (RF) in MT-2 cells; [2]): < 10 µg/mL; Ki [1, 3]: < 10 nM
12 | COC(=O)Oc1cccc(CN2C(=O)N(Cc3cccc(OC(=O)OC)c3)C(Cc3ccccc3)C(O)C(O)C2Cc2ccccc2)c1 (centres unmarked) [Example 9G] | 146 to 147 °C | < 10 µg/mL | 10 to 1000 nM | –
13 | CCNC(=O)c1cccc(CN2C(=O)N(Cc3cccc(C(=O)NCC)c3)C(Cc3ccccc3)C(O)C(O)C2Cc2ccccc2)c1 (centres unmarked) [11R] | 135 to 138 °C | < 10 µg/mL | < 10 nM | –
14 | OC1C(O)C(Cc2ccccc2)N(CC2CC2)C(=S)N(CC2CC2)C1Cc1ccccc1 (centres unmarked) [Example 27B] | 84 to 86 °C | – | – | IC90 (HIV-1 (RF) in MT-2 cells; Human immunodeficiency virus 1, MT2, Table 2q, read-out: IC90): < 10 µg/mL; Ki ([1]; read-out: HPLC Ki, Table 2q): < 10 nM
15 | O=C1N(Cc2cccc(-c3cc[nH]n3)c2)C(Cc2ccccc2)C(O)C(O)C(Cc2ccccc2)N1Cc1ccc(O)c(O)c1 (centres unmarked) [Example 15CC] | 177 to 180 °C | – | – | IC90 (HIV-1 (RF) in MT-2 cells; [2]): < 10 µg/mL; Ki [1, 3]: < 10 nM
16 | O=C1N(Cc2cccc(-c3nnn[nH]3)c2)C(Cc2ccccc2)C(O)C(O)C(Cc2ccccc2)N1Cc1cccc(-c2nnn[nH]2)c1 (centres unmarked) [9T] | 159.4 °C | > 100 µg/mL | < 10 nM | –
17 | O=C(NCc1ccccc1)Oc1cccc(CN2C(=O)N(Cc3cccc(OC(=O)NCc4ccccc4)c3)C(Cc3ccccc3)C(O)C(O)C2Cc2ccccc2)c1 (centres unmarked) [Example 9L] | 150 °C (dec.) | < 10 µg/mL | 10 to 1000 nM | –
18 | CCN(CC)C(=O)c1cccc(CN2C(=O)N(Cc3cccc(C(=O)N(CC)CC)c3)C(Cc3ccccc3)C(O)C(O)C2Cc2ccccc2)c1 (centres unmarked) [15WF] | 89 to 91 °C | < 10 µg/mL | < 10 nM | –
19 | CCC(O)CN1C(=O)N(CC(O)CC)C(Cc2ccccc2)C(O)C(O)C1Cc1ccccc1 (centres unmarked) [15VN] | 99.2 °C | > 50 µg/mL | > 1000 nM | –
20 | NC(=NO)c1cccc(CN2C(=O)NC(Cc3ccccc3)C(O)C(O)C2Cc2ccccc2)c1 (centres unmarked) [15AT] | 172 to 179 °C | – | – | IC90 (HIV-1 (RF) in MT-2 cells; [2]): < 10 µg/mL; Ki [1, 3]: < 10 nM
21 | O=C1N(CC2CC2)C(Cc2ccc([N+](=O)[O-])cc2)C(O)C(O)C(Cc2ccc([N+](=O)[O-])cc2)N1CC1CC1 (centres unmarked) [Example 20B] | 227.5 °C | – | – | IC90 (HIV-1 (RF) in MT-2 cells; [6]): < 10 µg/mL; Ki ([1]; read-out: HPLC Ki, Table 2i): < 10 nM
22 | O=C1N(Cc2cccc(OCCN3CCOCC3)c2)C(Cc2ccccc2)C(O)C(O)C(Cc2ccccc2)N1Cc1cccc(OCCN2CCOCC2)c1 (centres unmarked) [Example 15YG] | 110 to 112 °C | – | – | IC90 (HIV-1 (RF) in MT-2 cells; [2]): < 10 µg/mL; Ki [1, 3]: 10 to 1000 nM

Row | SMILES | melting point | IC90 (HIV-1 (RF) in MT-2 cells; [4]) | Ki [1, 5] | further results
23 | O=C1N(Cc2cccc(C=NOCc3ccccc3)c2)C(Cc2ccccc2)C(O)C(O)C(Cc2ccccc2)N1Cc1cccc(C=NOCc2ccccc2)c1 (centres unmarked) [Example 9D] | 170.5 to 171 °C | 10 to 100 µg/mL (≈ 12.9 to 129 µM) | 10 to 1000 nM | –
24 | O=C(O)c1cccc(CN2C(=O)N(Cc3ccc(CO)cc3)C(Cc3ccccc3)C(O)C(O)C2Cc2ccccc2)c1 (centres unmarked) [15WR] | 130 to 132 °C | < 10 µg/mL | < 10 nM | –
25 | O=S1(=O)N(CC2CC2)C(Cc2ccccc2)C(O)C(O)C(Cc2ccccc2)N1CC1CC1 (centres unmarked) [Example 23F] | 71 to 72 °C | – | – | IC90 (HIV-1 (RF) in MT-2 cells; Human immunodeficiency virus 1, MT2, Table 2m, read-out: IC90): < 10 µg/mL; Ki ([1]; read-out: HPLC Ki, Table 2m): < 10 nM
26 | CNC(=O)c1cccc(CN2C(=O)N(Cc3cccc(C(=O)OC)c3)C(Cc3ccccc3)C(O)C(O)C2Cc2ccccc2)c1 (centres unmarked) [11G] | 158 to 161 °C | < 10 µg/mL | < 10 nM | –
27 | Nc1ccc(CN2C(=O)N(Cc3ccc(N)cc3)C(Cc3ccccc3)C(O)C(O)C2Cc2ccccc2)cc1 (centres unmarked) [15CQ] | 114 to 116 °C | – | – | IC90 (HIV-1 (RF) in MT-2 cells; [2]): < 10 µg/mL; Ki [1, 3]: < 10 nM
28 | CNc1cccc(CN2C(=O)N(Cc3cccc(NC)c3)C(Cc3ccccc3)C(O)C(O)C2Cc2ccccc2)c1 (centres unmarked) [15D] | 180.3 °C | < 10 µg/mL | < 10 nM | –
29 | O=C1Nc2ccc(CN3C(=O)N(Cc4ccc5c(c4)C(=O)C(=O)N5)C(Cc4ccccc4)C(O)C(O)C3Cc3ccccc3)cc2C1=O (centres unmarked) [15DA] | 196 to 200 °C | – | – | IC90 (HIV-1 (RF) in MT-2 cells; [2]): < 10 µg/mL; Ki [1, 3]: < 10 nM
30 | O=C1N(Cc2cccc(CCl)c2)C(Cc2ccccc2)C(O)C(O)C(Cc2ccccc2)N1Cc1cccc(CCl)c1 (centres unmarked) [Example 9S] | 156 to 157 °C | < 10 µg/mL | 10 to 1000 nM | –
31 | O=C1N(Cc2cccc(O)c2)C(Cc2ccccc2)C(O)C(O)C(Cc2ccccc2)N1Cc1ccc2ccccc2c1 (centres unmarked) [10K] | 137 to 138 °C | < 10 µg/mL | < 10 nM | –
32 | CC(=O)c1cccc(CN2C(=O)N(Cc3cccc(C(C)=O)c3)C(Cc3ccccc3)C(O)C(O)C2Cc2ccccc2)c1 (centres unmarked) [Example 9P] | 158 to 159 °C | < 10 µg/mL | 10 to 1000 nM | –
33 | O=C1N(Cc2cccc(C=NO)c2)C(Cc2ccccc2)C(O)C(O)C(Cc2ccccc2)N1Cc1cccc(CNO)c1 (centres unmarked) [Example 9A] | 214 to 216 °C | < 10 µg/mL | 10 to 1000 nM | –
34 | O=C1N(CC2CC2)C(Cc2ccc([N+](=O)[O-])cc2)C(O)C(O)C(Cc2ccccc2[N+](=O)[O-])N1CC1CC1 (centres unmarked) [Example 20A] | 209.8 °C | – | – | IC90 (HIV-1 (RF) in MT-2 cells; [6]): < 10 µg/mL; Ki ([1]; read-out: HPLC Ki, Table 2i): < 10 nM
35 | O=C1NC(Cc2ccccc2)C(O)C(O)C(Cc2ccccc2)N1Cc1cccc(CO)c1 (centres unmarked) [15WI] | 176 to 177 °C | < 10 µg/mL | < 10 nM | –
36 | Nc1cccc(CN2C(=O)N(Cc3cccc(O)c3)C(Cc3ccccc3)C(O)C(O)C2Cc2ccccc2)c1 (centres unmarked) [11Q] | 116 to 120 °C | < 10 µg/mL | < 10 nM | –
37 | CC(C)NC(=O)c1cccc(CN2C(=O)N(Cc3cccc(C(=O)O)c3)C(Cc3ccccc3)C(O)C(O)C2Cc2ccccc2)c1 (centres unmarked) [15WN] | 164 to 167 °C | < 10 µg/mL | < 10 nM | –
38 | NC(=NO)c1cccc(CN2C(=O)N(CC3CC3)C(Cc3ccccc3)C(O)C(O)C2Cc2ccccc2)c1 (centres unmarked) [15AF] | 183 to 186 °C | – | – | IC90 (HIV-1 (RF) in MT-2 cells; [2]): < 10 µg/mL; Ki [1, 3]: < 10 nM
39 | NC(=O)c1cccc(CN2C(=O)N(Cc3ccc(CO)cc3)C(Cc3ccccc3)C(O)C(O)C2Cc2ccccc2)c1 (centres unmarked) [15WT] | 123 to 124 °C | < 10 µg/mL | < 10 nM | –
40 | NC(=NO)c1cccc(CN2C(=O)N(Cc3ccc(O)cc3)C(Cc3ccccc3)C(O)C(O)C2Cc2ccccc2)c1 (centres unmarked) [15AU] | 195 to 197 °C | – | – | IC90 (HIV-1 (RF) in MT-2 cells; [2]): < 10 µg/mL; Ki [1, 3]: < 10 nM
41 | CN(C=O)c1cccc(CN2C(=O)N(Cc3cccc(N(C)C=O)c3)C(Cc3ccccc3)C(O)C(O)C2Cc2ccccc2)c1 (centres unmarked) [15F] | 82 °C | < 10 µg/mL | 10 to 1000 nM | –
42 | CNC(=O)Oc1cccc(CN2C(=O)N(Cc3cccc(OC(=O)NC)c3)C(Cc3ccccc3)C(O)C(O)C2Cc2ccccc2)c1 (centres unmarked) [Example 9M] | 150 °C (dec.) | – | 10 to 1000 nM | IC90 (HIV-1 (RF) in MT-2 cells; Human immunodeficiency virus 1, MT2, 48 h): < 10 µg/mL
43 | NC(=NO)c1cccc(CN2C(=O)N(Cc3ccc(CO)cc3)C(Cc3ccccc3)C(O)C(O)C2Cc2ccccc2)c1 (centres unmarked) [15AH] | 198 to 199 °C | – | – | IC90 (HIV-1 (RF) in MT-2 cells; [2]): < 10 µg/mL; Ki [1, 3]: < 10 nM
